The results in this text go back to patent US6656690B2, “Mass spectrometric methods for biomolecular screening” (priority 1998, dated 2003).

SMILES strings stand for the structures. Entries after “also recorded” stand apart in the source; their conditions may differ.

One experiment has as its system 16S A site 27mer RNA. Kind of experiment: ESI-FTICR mass spectrometric (MASS) binding assay, 16S A-site 27-mer RNA model. More on the design: species or system prokaryotic. To be noted: for complexes observed with 16S (in words): aminoglycosides 500 nM each, mixture with untagged 16S and tagged 18S. On the procedure:
(§1) The ESI-FTICR mass spectrum depicted in FIG. 26 was acquired from a […] mixture of untagged 16S and tagged 18S in the presence of an equimolar mixture of five aminoglycosides. It is to be understood that other biomolecules may be used in place of the aminoglycosides. The aminoglycosides have been selected from two classes of 2-deoxystreptamines: 4,5-disubstituted (paromomycin, and lividomycin), and 4,6-disubstituted (tobramycin, sisomicin, and bekanamycin), present at 500 nM each. Complexes corresponding to 1:1 binding of individual aminoglycosides were observed between 16S and all members of the aminoglycoside mixture, with the apparent affinities estimated from the abundances of the respective complexes differing substantially. Signal intensities from the complexes with paromomycin (m/z 1925.572) and lividomycin (m/z 1954.790) are consistent with MS-measured dissociation constants of 110 nM and 28 nM, respectively. The intensities of 16S complexes with tobramycin (m/z 1895.960), bekanamycin (m/z 1899.171), and sisomicin (m/z 1891.972) were reduced, consistent with solution dissociation constants of […]. Wang, et al., Biochemistry, 1997, 36, 768-779. […] The spectrum is calibrated using multiple isotope peaks of the (M-5H^+)^5− and (M-4H^+)^4− charge states of the free RNA as internal mass standards which brackets the m/z range in which complexes are observed. The average mass measurement error obtained for the complexes in FIG. 26 is 2.1 ppm when m/z differences are measured between the most abundant (4 ^13C) isotope peak of 16S and each complex. This post calibration scheme is easily automated which enables rapid, high precision mass measurements of affinity selected ligands against multiple targets in a high throughput mode.
A preferred first step of MASS screening involves mixing the RNA target (or targets) with a combinatorial library of ligands designed to bind to a specific site on the target molecule(s). Specific noncovalent complexes formed in solution between the target(s) and any library members are transferred into the gas phase and ionized by ESI. As described herein, from the measured mass difference between the complex and the free target, the identity of the binding ligand can be determined. The dissociation constant of the complex can be determined in two ways: if a ligand with a known binding affinity for the target is available, a relative Kd can be measured by using the known ligand as an internal control and measuring the abundance of the unknown complex to the abundance of the control, alternatively, if no internal control is available, Kd's can be determined by making a series of measurements at different ligand concentrations and deriving a Kd value from the “titration” curve.
Electrospray ionization Fourier transform ion cyclotron resonance mass spectrometry was performed on a solution containing […] 16S RNA (the 27-mer construct shown in FIG. 24) and 500 nM paromomycin is depicted in FIG. 13. A 1:1 complex was observed between the paromomycin and the RNA consistent with specific aminoglycoside binding at the A-site. The insets show the measured and calculated isotope envelopes of the (M-5H+)5− species of the free RNA and the RNA-paromomycin complex. High precision mass measurements were acquired using isotope peaks of the (M-5H+)^5− and (M-4H^+)^4− charge states of the free RNA as internal mass standards and measuring the m/z difference between the free and bound RNA.
ESI-MS measurements of a solution containing a fixed concentration of RNA at different concentrations of ligand were obtained. By measuring the ratio of bound:unbound RNA at varying ligand concentrations, the Kd was determined by 1/slope of the “titration curve”. The MS derived value of 110 nM is in good agreement with previously reported literature value of 200 nM. […]

In another experiment the test system is 18S A site model. In words: ESI-FTICR mass spectrometric (MASS) binding assay, mass-tagged 18S A-site 27-mer RNA model. More on the design: species or system eukaryotic. To be noted: aminoglycosides 500 nM each, mixture with untagged 16S and tagged 18S. As for the experimental part: as §1, with “The” for “The spectrum is calibrated using multiple isotope peaks of the (M-5H^+)^5− and (M-4H^+)^4− charge states of the free RNA as internal mass standards which brackets the m/z range in which complexes are observed. The”, “This post calibration scheme is easily automated which enables rapid, high precision mass measurements of affinity selected ligands against multiple targets in a high throughput mode.” left out

Take `NC[C@H]1O[C@H](O[C@H]2[C@H](O)[C@@H](O[C@H]3O[C@H](CO)[C@@H](O)[C@H](N)[C@H]3O)[C@H](N)C[C@@H]2N)[C@H](N)[C@@H](O)[C@@H]1O` [bekanamycin]: the figures for the “complexes observed with 16S (in words)” value in the experiment on 16S A site 27mer RNA and in the experiment on 16S A site 27mer RNA (listed as bekamycin) were “reduced” and “Weaker complexes”, respectively.
What is called Kd is the concentration at which binding is half-saturated. With `NC[C@@H]1O[C@H](O[C@H]2[C@@H](O)[C@H](O[C@@H]3[C@@H](O)[C@H](N)C[C@H](N)[C@H]3O[C@H]3O[C@H](CO)[C@@H](O)C[C@H]3N)O[C@@H]2CO)[C@H](N)[C@@H](O)[C@@H]1O[C@H]1O[C@H](CO)[C@@H](O)[C@H](O)[C@@H]1O` [lividomycin], the Kd on 16S A site 27mer RNA (ESI-FTICR MS, 16S A site 27mer, read-out: MS-measured dissociation constant (KD)) is 28 nM. Also, in the experiment on 16S A site 27mer RNA, the “complexes observed with 16S (in words)” value was “High affinity complexes”. In addition, the “enhancement of binding affinity for 16S relative to paromomycin” value in the experiment with 16S A site 27mer RNA (lividomycin vs paromomycin) is listed as approximately 4 fold. Further, in the experiment with 18S A site model, the “complexes observed with 18S (in words)” value is listed as “complete absence of complexes”.
With `CN[C@@H]1[C@@H](O)[C@@H](O[C@@H]2[C@@H](O)[C@H](O[C@H]3OC(CN)=CC[C@H]3N)[C@@H](N)C[C@H]2N)OC[C@]1(C)O` [sisomicin], the “complexes observed with 16S (in words)” value in the experiment with 16S A site 27mer RNA was “reduced”; with 16S A site 27mer RNA (listed as sisomycin), “Weaker complexes”.
For the compound `NC[C@H]1O[C@H](O[C@H]2[C@H](O)[C@@H](O[C@H]3O[C@H](CO)[C@@H](O)[C@H](N)[C@H]3O)[C@H](N)C[C@@H]2N)[C@H](N)C[C@@H]1O` [tobramycin], the “complexes observed with 16S (in words)” value in the experiment on 16S A site 27mer RNA is reported as “reduced; also recorded: Weaker complexes”.
